In patent US12678433B2, “Compounds for treatment of hemolysis-and inflammasome-associated diseases” (New York Blood Center, Inc., priority 2020, dated 2026):

Columns and labels:
Format in all cases: cell-based, human
[1] = test system: DOCK8/STAT3 signaling pathway; assay: Protein phosphorylation analysis by intracellular flow cytometry in stimulated B cells; details: heme 10 μM
Description: Protein phosphorylation analysis: B cells were short-term (maximum overnight) stimulated using the same B cell activation cocktail as above in the absence or presence of hemin (10 μM) after which B cells were fixed with the same volume pre-warmed Phosflow Fix buffer I (BD Bioscience) for 10 min at 37° C. After that, cells were washed twice with MACS buffer (400×g, 4° C., 5 min) followed by addition of 0.4 ml Perm buffer Ill (pre-chilled in −20° C., BD Bioscience) for 30 min on ice. After two washes with MACS buffer, samples were stained with staining buffer (anti-Pyk2(pY402), SYK(pY319), SRC(pY418), and STAT3(pY705), 100 fold diluted with MACS buffer) at 4° C. for 45 min, washed and analyzed by flow cytometry.
It has been shown that plasma free-heme can directly bind to DOCK8 protein and inhibit monocyte/macrophage phagocytosis through the DOCK8-Cdc42 signaling pathway. DOCK8/STAT3 signaling pathway activation, leading to phosphorylation of Pky2, SYK, SRC, and STAT3, has also been reported to be critical for B cell activation, although the effect of heme on this activation pathway was not examined. To test whether DOCK8/STAT3 signaling is inhibited by cell-free heme during B cell activation, we analyzed the phosphorylation of Pyk2, SYK, SRC, and STAT3 following short-term stimulation in the presence or absence of heme (10 μM) by intracellular flow cytometric analysis. […]

HO-1 = HO-1 expression in stimulated B cells; details: stimulated B cells treated with heme 2.5 or 5 μM
From the text: HO-1 is a key enzyme for heme degradation with multiple biologic activities attributed to its enzymatic byproducts. We analyzed HO-1 expression levels in human B cells before and after stimulation with our polyclonal B cell activation cocktail. […] We also found higher HO-1 levels in DOCK8^hi plasma cells (FIG. 8B).

[2] = test system: naïve B cells from Allo(−) and Allo(+) SCD patients; assay: 7-day stimulated naïve B cell culture from SCD patients; details: for inhibition of plasmablast B cell differentiation: heme 5 μM
Description: Human samples. All studies were approved by the institutional Review Boards of the New York Blood Center (NYBC) and Montefiore Health Center. […] The blood samples from SCD patients were processed within 18 hours after collection. For circulating DOCK8 expression studies in healthy controls, peripheral blood samples from de-identified, race-matched healthy donors were used. Leukocyte enriched products from de-identified healthy donors were used for purification of B cells for in vitro culture studies.
Cell isolation and culture. Peripheral blood mononuclear cells (PBMCs) were prepared by Ficoll (GE Healthcare) density gradient centrifugation from healthy donor leukopak products as well as from sickle peripheral blood apheresis waste bags. Human naïve and memory B cells were isolated from PBMCs using a human memory B Cell Isolation Kit (Miltenyi Biotec) by collecting CD27− B cells (naïve B cells) and CD27+ B cell (memory B cells) separately. […] In addition, heme and various inhibitors were added to the cultures at the start point and incubated for 7 days.
Cultured cells: stimulated B cells were transferred into U bottom 96 well plate and washed with 200 μl MACS buffer (D-PBS containing 0.5% BSA and 2 mM EDTA) at 300×g for 5 min at 4° C. After one wash, cells were stained for surface expression of CD19, CD38, CD27 using 25 μl staining buffer (anti-CD19, CD38, CD27 antibodies, diluted 200 fold with MACS buffer) for 30 min at 4° C. After one wash with 200 μl MACS buffer, cells were resuspended in 100 μl D-PBS and 50 μl Fixable Viability Dye eFluor™ 780 (1000 fold diluted with D-PBS, Thermo Fisher Scientific) was added for dead cell detection for 5 min at room temperature. Cells were washed one time with MACS buffer and 100 μl D-DPS was added just before flow cytometric analysis (LSRFortessa flow cytometer, BD Bioscience). For intracellular staining of IgG, Blimp-1 and HO-1, samples were first washed with 200 μl MACS buffer before addition of 150 μl Fixation/Permeabilization buffer (Thermo Fisher Scientific) for 45 min at 4° C. After fixation, samples were washed twice with 1× Permeabilization buffer (Thermo Fisher Scientific) and stained with 25 μl intracellular staining buffer (anti-human IgG, DOCK8, Blimp-1, HO-1 antibodies, diluted 200 fold with 1× Permeabilization buffer) for 45 min at 4° C., after which the cells were washed twice with Permeabilization buffer and 100p D-DPS was added prior to flow cytometric analysis.

C=CC1=C(C)c2cc3[n-]c(cc4[n-]c(cc5nc(cc1n2)C(C)=C5C=C)c(C)c4CCC(=O)O)c(CCC(=O)O)c3C.[Fe+2] [heme, iron(III) complex of protoporphyrin IX]
p-STAT3 ([1]; overnight samples): inhibitory effect | levels of phosphorylated (p)-Pyk2/SYK/SRC/STAT3 ([1]; short-term stimulation (15 min)): significant reduction | HO-1 expression (HO-1): further induced | effect on B cell proliferation, Allo(−) versus Allo(+) patients ([2]; 2.5 or 5 μM hemin): did not differ | DOCK8hi B cells and CD27hiBlimp-1+ plasma cell differentiation ([2]; Allo(+) SCD patients): not | inhibition of plasmablast B cell differentiation ([2]; Allo(+) SCD patients): 16%±9.7% | DOCK8hi B cells and CD27hiBlimp-1+ plasma cell differentiation ([2]; Allo(−) SCD patients): inhibited | inhibition of plasmablast B cell differentiation ([2]; Allo(−) SCD patients): 58.6%±7.3%
